In patent publication US6528528B2 (Warner-Lambert Company, priority 1997, dated 2003):

Target: T1, rabbit reticulocyte 15-LO (Oryctolagus cuniculus, UniProt P12530)
T1 construct: Fifteen-lipoxygenase was obtained from phenylhydrazine-treated rabbits and purified per the method of Rapoport; from tissue; host or cells: reticulocytes of phenylhydrazine-treated rabbits
T1 sequence (P12530 1-663): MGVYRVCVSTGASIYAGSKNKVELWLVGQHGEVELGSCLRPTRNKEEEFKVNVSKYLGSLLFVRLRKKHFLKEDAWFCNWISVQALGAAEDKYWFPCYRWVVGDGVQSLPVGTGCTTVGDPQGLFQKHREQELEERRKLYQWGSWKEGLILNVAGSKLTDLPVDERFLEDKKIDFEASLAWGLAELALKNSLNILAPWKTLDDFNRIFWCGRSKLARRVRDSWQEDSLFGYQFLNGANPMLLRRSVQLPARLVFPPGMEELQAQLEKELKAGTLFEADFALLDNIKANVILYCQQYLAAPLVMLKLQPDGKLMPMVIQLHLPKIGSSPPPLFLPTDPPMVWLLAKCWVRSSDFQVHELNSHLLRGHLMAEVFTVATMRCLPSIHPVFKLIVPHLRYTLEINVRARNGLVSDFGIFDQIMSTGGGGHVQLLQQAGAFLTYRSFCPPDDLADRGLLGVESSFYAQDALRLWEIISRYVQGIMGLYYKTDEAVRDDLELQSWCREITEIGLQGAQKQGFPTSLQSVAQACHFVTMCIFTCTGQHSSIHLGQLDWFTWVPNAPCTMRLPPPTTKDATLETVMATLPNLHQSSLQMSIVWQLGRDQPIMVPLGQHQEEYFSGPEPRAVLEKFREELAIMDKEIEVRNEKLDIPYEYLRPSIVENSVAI
Test: Rabbit Reticulocyte 15-LO Assay (h15LO)
Assay type: biochemical
Settings: Table 2; for h15LO, value given as bare %: concentration not given; for IC50: 2U rabbit reticulocyte 15-LO, 174 μM linoleic acid, 15 minutes at 4° C.
Description: Rabbit Reticulocyte 15-LO Assay (h15LO)
The present 15-LO assay takes advantage of the ability of 15-LO to oxidize the fatty acid linoleic acid to the hydroperoxy fatty acid 13-(S)HPODE, resulting in the formation of a conjugated diene. The 15-LO inhibitors are incubated with 15-LO enzyme in the presence of linoleic acid substrate. The initial reaction is compared to an uninhibited (maximal) reaction to yield % inhibition. […] This prevents artificial nonenzyme lipid peroxidation and product breakdown in the sample. 13-HPODE is quantitated by comparing peak areas of individual samples with those from a standard curve generated using authentic 13-HODE. This assay is performed using 2U of rabbit reticulocyte 15-LO in the presence of 174 μM linoleic acid. The reaction is incubated for 15 minutes at 4° C. The total reaction volume is 100 μL in PBS containing 0.2% Na cholate.
Fifteen-lipoxygenase was obtained from phenylhydrazine-treated rabbits and purified per the method of Rapoport (Rapoport S. M., Schewe T., Wiesner R., et al. The lipoxygenase of reticulocytes. Purification, characterization, and biological dynamics of the lipoxygenase; its identity with the respiratory inhibitors of the reticulocyte. European Journal of Biochemistry, 1979;96:545-561). The following chemicals were purchased and used as received: linoleic acid (NUJCheck Prep), 13-HPODE (Biomol Research Labs), sodium cholate (Sigma), trimethyl phosphite (Fluka Chemicals).

h15LO, value given as bare % [%]	IC50 [nM]	SMILES
	982	COc1ccc(C(=O)Nc2ccccc2)cc1NCc1ccc(F)cc1 [Example 224, 4-Methoxy-3-(4-fluoro-benzylamino)-N-phenyl-benzamide]
	137	COc1ccc(C(=O)Nc2ccccc2)cc1NCc1cccs1 [Example 259, 4-Methoxy-3-[(thiophen-2-ylmethyl)-amino]-N-phenyl-benzamide]
	391	COc1ccc(C(=O)Nc2ccccc2)cc1NCc1ccc(F)c(F)c1 [Example 274, 3-(3,4-Difluoro-benzylamino)-4-methoxy-N-phenyl-benzamide]
60		COc1ccccc1CNc1cc(C(=O)Nc2ccccc2)ccc1OC [Example 238, 4-Methoxy-3-(2-methoxy-benzylamino)-N-phenyl-benzamide]
92.70		COc1ccc(C(=O)Nc2ccccc2)cc1NCc1cccc(C#N)c1 [Example 229, 3-(3-Cyano-benzylamino)-4-methoxy-N-phenyl-benzamide]
73.46		COc1ccc(C(=O)Nc2ccccc2)cc1NCc1ccc(C#N)cc1 [Example 233, 3-(4-Cyano-benzylamino)-4-methoxy-N-phenyl-benzamide]
98.89		COc1ccc(NC(=O)c2ccc(F)c(F)c2)cc1NCc1cccs1 [Example 265, 3,4-Difluoro-N-{4-methoxy-3-[(thiophen-2-ylmethyl)-amino]-phenyl}-benzamide]
	46	COc1ccc(C(=O)Nc2ccccc2)cc1NS(=O)(=O)c1cc(Cl)cc(Cl)c1 [Example 248, 3-(3,5-Dichloro-benzenesulfonylamino)-4-methoxy-N-phenyl-benzamide]
49.19		COc1ccc(C(=O)Nc2ccccc2)cc1NCc1ccc(C(C)C)cc1 [Example 243, 3-(4-Isopropyl-benzylamino)-4-methoxy-N-phenyl-benzamide]
	304	COc1ccc(C(=O)Nc2ccccc2)cc1NCc1ccc(O)cc1 [Example 272, 3-(4-Hydroxy-benzylamino)-4-methoxy-N-phenyl-benzamide]
50		COc1ccc(C(=O)Nc2ccccc2)cc1NCc1ccc(C)c(C)c1 [Example 242, 3-(3,4-Dimethyl-benzylamino)-4-methoxy-N-phenyl-benzamide]
	40	COc1ccc(C(=O)Nc2ccccc2)cc1CNC(=S)Nc1cc(Cl)cc(Cl)c1 [Example 247, 3-[3-(3,5-Dichloro-phenyl)-thioureidomethyl]-4-methoxy-N-phenyl-benzamide]
	385	COc1ccc(C(=O)Nc2ccccc2)cc1NCc1cccc(C)c1 [Example 273, 4-Methoxy-3-(3-methyl-benzylamino)-N-phenyl-benzamide]
	197	COc1ccc(C(=O)Nc2ccccc2)cc1NCc1ccc2c(c1)OCO2 [Example 266, 3-[(Benzo[1,3]dioxol-5-ylmethyl)-amino]-4-methoxy-N-phenyl-benzamide]
	118	COc1ccc(CNc2cc(C(=O)Nc3ccccc3)ccc2OC)cc1 [Example 216, 4-Methoxy-3-(4-methoxy-benzylamino)-N-phenyl-benzamide]

Further lines, the molecule ahead of its results:

SMILES	h15LO, value given as bare % [%]	IC50 [nM]
CCCCCCCCCCCCS(=O)(=O)Nc1cc(NC(=O)c2ccc(F)c(F)c2)ccc1OC [Example 200, 3,4-Difluoro-N-[4-methoxy-3-(1-dodecane-sulfonylamino)-phenyl]-benzamide]	96.92	
COc1ccc(C(=O)Nc2ccc(F)cc2)cc1NS(=O)(=O)c1ccc(C#N)cc1 [Example 193, 3-(4-Cyano-benzenesulfonylamino)-4-methoxy-N-(4-fluoro-phenyl)-benzamide]	94.51	
COc1ccc(C(=O)Nc2ccc(F)c(F)c2)cc1NS(=O)(=O)c1cccc([N+](=O)[O-])c1 [Example 180, 3-(3-Nitro-benzenesufonylamino)-4-methoxy-N-(3,4-difluoro-phenyl)-benzamide]		36
Nc1cc(C(=O)Nc2ccccc2)ccc1OC(F)(F)F [Example 147, 3-Amino-4-trifluoromethoxy-N-phenyl-benzamide]	37.05	
CCCCCCCCS(=O)(=O)Nc1cc(C(=O)Nc2ccccc2)ccc1OC [Example 178, 4-Methoxy-3-(octane-1-sulfonylamino)-N-phenyl-benzamide]		4
COc1ccc(C(=O)Nc2ccccc2)cc1NS(=O)(=O)c1ccc(C#N)cc1 [Example 192, 3-(4-Cyano-benzenesulfonylamino)-4-methoxy-N -phenyl-benzamide]	95.56	
COc1ccc(C(=O)Nc2ccccc2)cc1Nc1ccc(F)cc1 [Example 153, 3-(4-Fluoro-phenylamino)-4-methoxy-N-phenyl-benzamide]		54
COc1ccc(C(=O)Nc2ccccc2)cc1NS(=O)(=O)c1ccc2ccccc2c1 [Example 140, 3-(Naphthalene-2-sulfonylamino)-4-methoxy-N-phenyl-benzamide]		39
COc1ccc(C(=O)Nc2ccccc2)cc1NCc1cccc(O)c1 [Example 213, 3-(3-Hydroxy-benzylamino)-4-methoxy-N-phenyl-benzamide]		79
COc1ccc(NC(=O)Nc2ccc(Cl)c(Cl)c2)cc1NC(=S)Nc1cc(Cl)cc(Cl)c1 [Example 171, 1-(3,4-Dichloro-phenyl)-3-{3-[3-(3,5-dichloro-phenyl)-thioureido]-4-methoxy-phenyl}-urea]		275
COc1ccc(NC(=O)c2ccc(Cl)c(Cl)c2)cc1Nc1cccc(C(F)(F)F)c1 [Example 160, 3,4-Dichloro-N-[4-methoxy-3-(3-trifluoromethyl-phenylamino)-phenyl]-benzamide]		119
COC(=O)c1cccc(NC(=S)Nc2cc(NC(=O)Nc3ccc(Cl)c(Cl)c3)ccc2OC)c1 [Example 172, 3-(3-{5-[3-(3,4-Dichloro-phenyl)-ureido]-2-methoxy-phenyl}-thioureido)-benzoic Acid Methyl Ester]	89.03	
COc1ccc(NC(=O)c2ccc(F)c(F)c2)cc1NS(=O)(=O)c1ccc(N)cc1 [Example 199, 3,4-Difluoro-N-[4-methoxy-3-(4-amino-benzenesulfonylamino)-phenyl]-benzamide]	97.68	
COc1ccc(NC(=O)Nc2ccc(Cl)c(Cl)c2)cc1N [Example 152, 1-(3-Amino-4-methoxy-phenyl)-3-(3,4-dichloro-phenyl)-urea]	57.49	
COC(=O)c1cccc(NC(=S)Nc2cc(C(=O)Nc3ccccc3)ccc2OC)c1 [Example 161, 3-[3-(2-Methoxy-5-phenylcarbamoyl-phenyl)-thioureido]-benzoic Acid Methyl Ester]		22
COc1ccc(C(=O)Nc2ccc(F)c(F)c2)cc1NS(=O)(=O)c1cc(Cl)cc(Cl)c1 [Example 116, 3-(3,5-Dichloro-benzenesulfonylamino)-4-methoxy-N-(3,4-difluorophenyl)-benzamide]		20
COc1ccc(C(=O)Nc2ccc(F)c(F)c2)cc1NS(=O)(=O)c1ccc(C#N)cc1 [Example 187, 3-(4-Cyano-benzenesulfonylamino)-4-methoxy-N-(3,4-difluoro-phenyl)-benzamide]	98.38	
COc1ccc(C(=O)Nc2ccc(F)c(F)c2)cc1NS(=O)(=O)c1ccc([N+](=O)[O-])cc1 [Example 186, 4-Methoxy-3-(4-nitro-benzenesulfonylamino)-N-(3,4-difluoro-phenyl)-benzamide]	99.35	
COc1ccc(NC(=O)Nc2ccc(Cl)c(Cl)c2)cc1NS(=O)(=O)c1cccs1 [Example 207, Thiophene-2-sulfonic acid {5-[3-(3,4-dichloro-phenyl)-ureido]-2-methoxy-phenyl}-amide]	41.59	
COc1ccc(C(=O)Nc2ccc(F)cc2)cc1NS(=O)(=O)c1cccc([N+](=O)[O-])c1 [Example 190, 4-Methoxy-3-(3-nitro-benzenesulfonylamino)-N-(4-fluoro-phenyl)-benzamide]	97.05	
CCOC(=O)c1cccc(NC(=O)c2ccc(OC)c(Nc3cccc(C(F)(F)F)c3)c2)c1 [Example 157, 3-[4-Methoxy-3-(3-trifluoromethyl-phenylamino)-benzoylamino]-benzoic Acid Ethyl Ester]	78.83	
